In general, EC50 refers to the concentration needed to bring the measured effect to its halfway point.

Structures are written as SMILES. Numbered stars: 1 amine (or outer) side, 2 acyl side, 3 side chain; on linkers, the order of the positions; unused ones are H or OH. Bridge positions count the residues as written; N and C are the ends. Peptide text beside a SMILES is read from it. * marks the point of attachment. C20 diacid = O=C(O)CCCCCCCCCCCCCCCCCCC(=O)*; γGlu = O=C(O)[C@H](CCC(=O)[*:2])N[*:1]

This test concerns the target T1, hAMY3 receptor (Homo sapiens, UniProt O60896+P30988).
T1 sequence (P30988 25-474): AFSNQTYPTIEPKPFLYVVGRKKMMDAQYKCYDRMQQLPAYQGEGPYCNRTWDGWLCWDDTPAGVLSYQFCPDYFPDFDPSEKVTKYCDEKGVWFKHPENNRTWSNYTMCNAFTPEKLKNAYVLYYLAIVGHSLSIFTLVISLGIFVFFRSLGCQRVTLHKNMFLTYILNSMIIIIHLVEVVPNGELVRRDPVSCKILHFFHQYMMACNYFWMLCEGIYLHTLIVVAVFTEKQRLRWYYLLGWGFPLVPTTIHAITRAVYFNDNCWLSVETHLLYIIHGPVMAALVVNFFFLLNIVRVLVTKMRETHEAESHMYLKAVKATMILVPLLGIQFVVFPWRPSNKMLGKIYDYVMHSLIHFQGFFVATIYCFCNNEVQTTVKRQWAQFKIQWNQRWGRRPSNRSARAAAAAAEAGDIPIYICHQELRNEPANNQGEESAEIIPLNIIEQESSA
T1 sequence (O60896 24-148 partner): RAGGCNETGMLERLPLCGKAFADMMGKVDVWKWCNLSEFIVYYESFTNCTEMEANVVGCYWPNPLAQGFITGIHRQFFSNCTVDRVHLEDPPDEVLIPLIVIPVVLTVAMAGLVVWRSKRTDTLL
Nature of the test: cAMP assay for in vitro receptor activation, hAMY3-R. As to conditions: cAMP assay, hAMY3 receptor; read-out: hAMY3R EC50. The format is cell-based. An outline of the steps: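 Stable hAMY3 cells; DPBS + 0.05% casein + 0.5 mM IBMX; graded compound doses, 30 min, RT; cAMP via HTRF Gs kit, TR-FRET read at 1 h.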
On to `CC(C)C[C@H](NC(=O)[C@H](CCCNC(=N)N)NC(=O)[C@H](CCC(N)=O)NC(=O)[C@@H](NC(=O)[C@@H](NC(=O)[C@@H]1CSSC[C@H](NC(=O)CNC(=O)CC[C@H](NC(=O)CCCCCCCCCCCCCCCCCCC(=O)O)C(=O)O)C(=O)N[C@@H](CCCNC(=N)N)C(=O)N[C@@H](Cc2ccccc2)C(=O)NCC(=O)N[C@@H]([C@@H](C)O)C(=O)N1)[C@@H](C)O)C(C)C)C(=O)N[C@@H](C)C(=O)N[C@@H](Cc1c[nH]cn1)C(=O)N[C@@H](Cc1ccccc1)C(=O)N[C@@H](CC(C)C)C(=O)N[C@@H](Cc1ccc(O)cc1)C(=O)N[C@@H](CCC(N)=O)C(=O)N[C@@H](Cc1ccccc1)C(=O)N[C@H](C(=O)N[C@@H](CC(=O)O)C(=O)N[C@@H](CCCCN)C(=O)N[C@@H](CC(=O)O)C(=O)N[C@@H](CCCCN)C(=O)N[C@@H](CC(=O)O)C(=O)N[C@@H](CC(N)=O)C(=O)N[C@H](C(=O)N[C@@H](C)C(=O)N1CCC[C@H]1C(=O)N[C@@H](CCCNC(=N)N)C(=O)N[C@H](C(=O)N[C@@H](CC(N)=O)C(=O)N[C@H](C(=O)NCC(=O)N1CCC[C@H]1C(=O)N[C@@H](CCC(N)=O)C(=O)NCC(=O)N[C@@H](Cc1ccc(O)cc1)C(N)=O)C(C)C)[C@@H](C)O)C(C)C)[C@@H](C)O` [compound 200] ({C20 diacid-γGlu}-GCRFGTCTVQRLAHFLYQFTDKDKDNVAPRTNVGPQGY-NH2; disulfide 2-7), for which the EC50 amounted to 126 pM.
For `CC(C)C[C@H](NC(=O)[C@H](CCCNC(=N)N)NC(=O)[C@H](CCC(N)=O)NC(=O)[C@@H](NC(=O)[C@@H](NC(=O)[C@@H]1CSSC[C@H](NC(=O)CNC(=O)CC[C@H](NC(=O)CCCCCCCCCCCCCCCCCCC(=O)O)C(=O)O)C(=O)N[C@@H](CCCNC(=N)N)C(=O)N[C@@H](Cc2ccccc2)C(=O)NCC(=O)N[C@@H]([C@@H](C)O)C(=O)N1)[C@@H](C)O)C(C)C)C(=O)N[C@@H](C)C(=O)N[C@@H](Cc1c[nH]cn1)C(=O)N[C@@H](Cc1ccccc1)C(=O)N[C@@H](CC(C)C)C(=O)N[C@@H](Cc1ccc(O)cc1)C(=O)N[C@@H](CCC(N)=O)C(=O)N[C@@H](Cc1ccccc1)C(=O)N[C@H](C(=O)N[C@@H](CC(=O)O)C(=O)N[C@@H](CCCCN)C(=O)N[C@@H](CC(=O)O)C(=O)N[C@@H](CCCCN)C(=O)N[C@@H](CC(=O)O)C(=O)N[C@@H](CC(N)=O)C(=O)N[C@H](C(=O)N[C@@H](C)C(=O)N1CCC[C@H]1C(=O)N[C@@H](CCCNC(=N)N)C(=O)N[C@H](C(=O)N[C@@H](CCCCN)C(=O)N[C@H](C(=O)NCC(=O)N[C@@H](CO)C(=O)N[C@@H](CC(N)=O)C(=O)NCC(=O)N[C@@H](Cc1ccc(O)cc1)C(N)=O)C(C)C)[C@@H](C)O)C(C)C)[C@@H](C)O` [compound 223] ({C20 diacid-γGlu}-GCRFGTCTVQRLAHFLYQFTDKDKDNVAPRTKVGSNGY-NH2; disulfide 2-7), the EC50 stood at 186 pM.
As for `CC[C@H](C)[C@H](NC(=O)[C@H](CCC(N)=O)NC(=O)[C@H](Cc1c[nH]cn1)NC(=O)[C@H](C)NC(=O)[C@H](CC(C)C)NC(=O)[C@H](CCCNC(=N)N)NC(=O)[C@H](CCC(N)=O)NC(=O)[C@@H](NC(=O)[C@@H](NC(=O)[C@@H]1CSSC[C@H](NC(=O)[C@@H](N)CCCCN)C(=O)N[C@@H](CC(N)=O)C(=O)N[C@@H](Cc2ccccc2)C(=O)N[C@@H](C)C(=O)N[C@@H]([C@@H](C)O)C(=O)N1)[C@@H](C)O)C(C)C)C(=O)N[C@@H](Cc1ccc(O)cc1)C(=O)N[C@@H](CCC(N)=O)C(=O)N[C@@H](Cc1ccccc1)C(=O)N[C@H](C(=O)N[C@@H](CC(=O)O)C(=O)N[C@@H](CCCCN)C(=O)N[C@@H](CC(=O)O)C(=O)N[C@@H](CCCCN)C(=O)N[C@@H](CC(=O)O)C(=O)N[C@@H](CC(N)=O)C(=O)N[C@H](C(=O)N[C@@H](C)C(=O)N1CCC[C@H]1C(=O)N[C@@H](CCCNC(=N)N)C(=O)N[C@H](C(=O)N[C@@H](CCCCN)C(=O)N[C@H](C(=O)NCC(=O)N[C@@H](CO)C(=O)N[C@@H](CC(N)=O)C(=O)NCC(=O)N[C@@H](Cc1ccc(O)cc1)C(N)=O)C(C)C)[C@@H](C)O)C(C)C)[C@@H](C)O` [compound 361] (H-KCNFATCTVQRLAHQIYQFTDKDKDNVAPRTKVGSNGY-NH2; disulfide 2-7; N-terminus assumed), the concentration for a half-maximal effect (EC50) was 6 pM.

The values are drawn from patent US12139520B2 (priority 2020, dated 2024).
